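Step 1: Grow cells in 96-well plates. Step 2: Expose to compound for 48 hours at 5 concentrations. Step 3: Interpolate endpoints linearly; if unreached, use highest concentration. Here, GI50 denotes the concentration required for 50% inhibition of growth.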 Activity calls are given as the source filed them. Cut-off read from the data, not from the text of the source: active = GI50 up to about 1.1 µM and inactive = higher.

Test systems include NCI-H522; A549; EKVX; NCI-H226; SF-539; NCI/ADR-RES; HCC 2998; HOP-62; T47D; MDA-MB-231; OVCAR-8; NCI-H23; NCI-H460; BT-549; DU-145; LOX IMVI; CCRF-CEM; ACHN; MDA-N; SNB-75.
Assay in all cases: NCI anticancer screen, dose series, 48 h

As to `CSc1nc(NC2CCCC2)c2cc[nH]c2n1`, the GI50 in the experiment with NCI-H522 was 66.8 µM (inactive); in the experiment with A549, 50.6 µM (inactive); in the experiment with EKVX, 31.2 µM (inactive); in the experiment with NCI-H226 it was 87.5 µM (inactive); in the experiment with SF-539, > 100 µM (inactive); in the experiment on NCI/ADR-RES, 71.1 µM (inactive). In addition, the GI50 is > 100 µM (inactive) with HCC 2998; > 100 µM (inactive) with HOP-62; 61.1 µM (inactive) in the experiment with T47D; 36.1 µM (inactive) in the experiment on MDA-MB-231; 89.1 µM (inactive) with OVCAR-8; 91 µM (inactive) with NCI-H23. Also, the GI50 in the experiment with NCI-H460 is > 100 µM (inactive); with BT-549, 74.6 µM (inactive); in the experiment on DU-145 it was > 100 µM (inactive); in the experiment with LOX IMVI, 37.6 µM (inactive); with CCRF-CEM it was 47.4 µM (inactive); in the experiment with ACHN, 64.7 µM (inactive). Further, the GI50 in the experiment on MDA-N is 54.3 µM (inactive).
As for `C=C(C)C1CC2(C)C(C)CC(OC(=O)/C(C)=C\C)CC2C(OC(=O)/C(C)=C\C)C1O` (centres undefined), the GI50 in the experiment with NCI-H522 is 32.7 µM (inactive); in the experiment with A549, 39.5 µM (inactive); with EKVX it was 67 µM (inactive); in the experiment on NCI-H226, > 100 µM (inactive); in the experiment with SF-539, > 100 µM (inactive); in the experiment on NCI/ADR-RES it was > 100 µM (inactive). The GI50 is > 100 µM (inactive) in the experiment with HCC 2998; 43.2 µM (inactive) in the experiment on T47D; > 100 µM (inactive) in the experiment with MDA-MB-231; > 100 µM (inactive) in the experiment on OVCAR-8; 61.9 µM (inactive) with NCI-H23; 45.1 µM (inactive) in the experiment on NCI-H460. Besides, the GI50 was 62.1 µM (inactive) in the experiment on BT-549; 66.8 µM (inactive) with DU-145; 38.6 µM (inactive) with LOX IMVI; 22 µM (inactive) with SNB-75; 20.8 µM (inactive) in the experiment on CCRF-CEM; 32.9 µM (inactive) in the experiment on ACHN. Also, in the experiment with MDA-N, the GI50 was 55.8 µM (inactive).
Consider `CCOC(=O)N1c2ccccc2S(=O)(=O)c2ccccc21`, for which the GI50 in the experiment with NCI-H522, in the experiment on A549, in the experiment with EKVX, in the experiment on NCI-H226, with SF-539 and in the experiment on NCI/ADR-RES was > 100 µM (inactive) in each case. The GI50 in the experiment on HCC 2998 was > 100 µM (inactive); with HOP-62 it was > 100 µM (inactive); in the experiment on T47D it was 67.8 µM (inactive); with MDA-MB-231, > 100 µM (inactive); in the experiment on OVCAR-8 it was > 100 µM (inactive); with NCI-H23, > 100 µM (inactive). Moreover, the GI50 in the experiment with NCI-H460, in the experiment with BT-549, with DU-145, with LOX IMVI, in the experiment with CCRF-CEM and with ACHN was > 100 µM (inactive) in each case. For the same compound, in the experiment with MDA-N, the GI50 is > 100 µM (inactive).
As to `Nc1c(/C=C/c2cc3cc(C4=NCCN4)ccc3o2)[nH]c2cc(C3=NCCN3)ccc12`, the GI50 in the experiment on NCI-H522 is 45.9 µM (inactive); with A549, 41.5 µM (inactive); with EKVX, 40.1 µM (inactive); in the experiment with NCI-H226 it was > 100 µM (inactive); in the experiment with SF-539, 40 µM (inactive); with NCI/ADR-RES, 76.2 µM (inactive). Further, the GI50 in the experiment with HCC 2998 was 32.4 µM (inactive); with HOP-62, 34.2 µM (inactive); in the experiment with T47D, 46.5 µM (inactive); in the experiment on MDA-MB-231, 34.1 µM (inactive); with OVCAR-8, 38.9 µM (inactive); with NCI-H23, 60.7 µM (inactive). Further, the GI50 in the experiment on NCI-H460 was 32.7 µM (inactive); in the experiment on BT-549, 43.6 µM (inactive); in the experiment with DU-145 it was 36.1 µM (inactive); with LOX IMVI it was 38.8 µM (inactive); in the experiment on SNB-75, 63.5 µM (inactive); with ACHN, 47.1 µM (inactive). The GI50 in the experiment with MDA-N is 37.8 µM (inactive).
On to `COC(=O)C1(C)CCCC2(C)C3CCC4CC3(C=C4CO)CCC12` (centres undefined), for which the GI50 in the experiment with NCI-H522 is 34.2 µM (inactive); in the experiment on A549, > 100 µM (inactive); in the experiment with EKVX, 41.2 µM (inactive); with NCI-H226 it was 53.2 µM (inactive); in the experiment with SF-539 it was 32.1 µM (inactive); in the experiment on NCI/ADR-RES, 24.4 µM (inactive). Also, the GI50 is 39.6 µM (inactive) in the experiment with HCC 2998; 75 µM (inactive) in the experiment with HOP-62; 34.4 µM (inactive) with T47D; 73.5 µM (inactive) in the experiment on MDA-MB-231; 36.9 µM (inactive) with OVCAR-8; 38.1 µM (inactive) in the experiment on NCI-H23. The GI50 in the experiment with BT-549 is 49.3 µM (inactive); in the experiment on DU-145 it was > 100 µM (inactive); in the experiment on LOX IMVI, 20.7 µM (inactive); in the experiment on SNB-75 it was 37.2 µM (inactive); in the experiment on CCRF-CEM, 41.7 µM (inactive); with ACHN, 41 µM (inactive). The GI50 with MDA-N was 46.7 µM (inactive).
For the compound `Nc1ncc2c(n1)-c1ccccc1OC2NC1CC1` (centres undefined), the GI50 in the experiment on NCI-H522 is > 100 µM (inactive); in the experiment with A549, > 100 µM (inactive); in the experiment on EKVX it was 97.5 µM (inactive); with NCI-H226 it was > 100 µM (inactive); in the experiment on SF-539, > 100 µM (inactive); with NCI/ADR-RES, > 100 µM (inactive). The GI50 with T47D, in the experiment on MDA-MB-231, in the experiment on OVCAR-8, in the experiment on NCI-H23, in the experiment on NCI-H460 and in the experiment with BT-549 was > 100 µM (inactive) throughout. For the same compound, the GI50 in the experiment on DU-145, in the experiment on LOX IMVI, in the experiment on SNB-75, with CCRF-CEM, with ACHN and in the experiment on MDA-N was > 100 µM (inactive) throughout.
For `C[C@]12CC/C(=N\O)C=C1CC[C@@H]1[C@@H]2CC[C@]2(C)C(=N/O)/C(=C/c3ccncc3)C[C@@H]12`, the GI50 in the experiment with NCI-H522 is 27.2 µM (inactive); in the experiment with A549, 11.1 µM (inactive); in the experiment with EKVX it was 25.7 µM (inactive); in the experiment with NCI-H226 it was 6.37 µM (inactive); in the experiment on SF-539 it was 31.8 µM (inactive); in the experiment on NCI/ADR-RES it was 21.2 µM (inactive). In addition, the GI50 in the experiment on HCC 2998 was 19.1 µM (inactive); with HOP-62 it was 41.2 µM (inactive); in the experiment with T47D, 19.7 µM (inactive); in the experiment with MDA-MB-231, 20.8 µM (inactive); in the experiment on OVCAR-8, 24.6 µM (inactive); in the experiment with NCI-H23, 31.5 µM (inactive). Further, the GI50 in the experiment with NCI-H460 was 14.6 µM (inactive); in the experiment with BT-549, 36.1 µM (inactive); in the experiment with DU-145 it was 31.6 µM (inactive); with LOX IMVI, 20 µM (inactive); in the experiment on SNB-75, 25.5 µM (inactive); with ACHN, 18.7 µM (inactive). Besides, in the experiment with MDA-N, the GI50 is 21.7 µM (inactive).
As to `COc1ccc2cc1Oc1ccc(cc1)CC1c3cc(OC)c(cc3CCN1C)Oc1c(OC)c(OC)cc3c1C(C2)N(C)CC3` (centres undefined), the GI50 in the experiment on NCI-H522 is 9.89 µM (inactive); in the experiment on A549, 17.5 µM (inactive); in the experiment on EKVX, 12.2 µM (inactive); in the experiment on NCI-H226 it was 16.9 µM (inactive); in the experiment on SF-539 it was 8.95 µM (inactive); in the experiment on NCI/ADR-RES it was 14 µM (inactive). Further, the GI50 with HCC 2998 is 9.62 µM (inactive); in the experiment with T47D, 9.93 µM (inactive); in the experiment with MDA-MB-231 it was 10 µM (inactive); in the experiment on OVCAR-8, 12.4 µM (inactive); in the experiment with NCI-H23, 15.1 µM (inactive); in the experiment with NCI-H460 it was 10.2 µM (inactive). For the same compound, the GI50 was 10.8 µM (inactive) in the experiment on BT-549; 12.6 µM (inactive) in the experiment with DU-145; 9.98 µM (inactive) in the experiment with LOX IMVI; 8.63 µM (inactive) with SNB-75; 17.7 µM (inactive) with CCRF-CEM; 9.57 µM (inactive) in the experiment with ACHN. In the experiment with MDA-N, the GI50 was 10.5 µM (inactive).
Regarding `O=C(Nc1ccc(Cl)cc1)C(=O)C1=C(O)c2ccccc2OC1`, the GI50 with NCI-H522, in the experiment with A549, in the experiment with EKVX, in the experiment on NCI-H226, with SF-539 and in the experiment with NCI/ADR-RES was > 100 µM (inactive) each time. The GI50 in the experiment with HCC 2998, in the experiment with T47D, in the experiment on MDA-MB-231, with OVCAR-8, in the experiment on NCI-H23 and in the experiment with NCI-H460 was > 100 µM (inactive) throughout. The GI50 in the experiment on BT-549 is > 100 µM (inactive); in the experiment with DU-145, > 100 µM (inactive); in the experiment with LOX IMVI, > 100 µM (inactive); in the experiment on SNB-75, 33.1 µM (inactive); in the experiment with CCRF-CEM it was > 100 µM (inactive); in the experiment on ACHN, > 100 µM (inactive). Further, in the experiment with MDA-N, the GI50 was > 100 µM (inactive).
As for `CC(=O)OC(C)c1cc2c(s1)C(=O)c1ccsc1C2=O` (centres undefined), the GI50 is 0.149 µM (active) in the experiment with NCI-H522; 1.37 µM (inactive) with A549; 0.773 µM (active) in the experiment on EKVX; 1.61 µM (inactive) with NCI-H226; 0.0528 µM (active) in the experiment on SF-539; 0.271 µM (active) with NCI/ADR-RES. For the same compound, the GI50 was 0.451 µM (active) in the experiment on HCC 2998; 0.137 µM (active) with HOP-62; 0.437 µM (active) in the experiment with T47D; 0.209 µM (active) with MDA-MB-231; 0.228 µM (active) in the experiment with OVCAR-8; 0.0575 µM (active) in the experiment with NCI-H23. In addition, the GI50 in the experiment on BT-549 is 0.167 µM (active); in the experiment on DU-145 it was 0.118 µM (active); in the experiment on LOX IMVI it was 0.0117 µM (active); in the experiment with SNB-75, 0.148 µM (active); in the experiment on CCRF-CEM it was 0.204 µM (active); in the experiment on ACHN, 0.158 µM (active). Further, the GI50 in the experiment on MDA-N is 0.0206 µM (active).
